The values that follow come from patent publication EP0411183A1, “Ascorbic acid derivative” (NIPPON HYPOX LABORATORIES INCORPORATED, priority 1989, dated 1991).

Assay [1] in a line: Antioxidant action examined by using stable radicals (DPPH reduction activity, M.S. Blois method). The assay is classed as biochemical. Conditions: 0.1 mM DPPH solution in ethanol, absorbance at 517 nm after 20 minutes; read-out: 50% radical eliminating concentration. The method, then: Test example 1 (Antioxidant action examined by using stable radicals)
Reduction activity of α,-α-diphenyl-β-picrylhydrazyl (DPPH) which was a stable free radical was examined according to the M.S. Blois method (Nature, vol. 181, page. 1199, 1958) and used as an index to antioxidant action. Thus, specimens were added to 3 mℓ of a 0.1 mM DPPH solution in ethanol, and absorbance at a wavelength of 517 nm was measured using a spectrophotometer after 20 minutes. The difference in absorbance from the solvent control [0.5% or less of dimethylformamide (DMF)] was taken as the reduction activity.
Background: Loss of DPPH colour is used to gauge radical scavenging.

For assay [2], the system named is superoxide anion radicals. In words: Effects on formazan formation in the xanthine-xanthine oxidase-Nitrotetrazolium Blue system. The assay is classed as biochemical. Conditions: for Inhibition ratio (%) of formazan formation: phosphate buffer pH 7.8, 30°C, 10 minutes; for formazan formation (result in words): summary of Table-3. On the procedure: Specimens were added to a 0.05 M phosphate buffer solution (pH 7.8) containing xanthine, EDTA 2Na and Nitrotetrazolium Blue (NTB) so as to provide the respective final concentrations of 5x10⁻⁵ M, 1x10⁻⁴ M and 5x10⁻⁴ M and warmed at 30°C for 3 minutes. Xanthine oxidase (manufactured by Sigma Corp.) was added, and the resulting specimens were warmed at 30°C for 10 minutes to colorimetrically determine formazan formed by superoxide anion radicals. The inhibition ratio of formazan formation was determined from the results at concentrations of 0.5 mM and 4 mM of each specimen.

Regarding “L-5,6-O-isopropylidene-3-O-methylcarbomethylascorbic acid [compound 021]”, the IC50 in assay [1] came out at 17 µM. For the same molecule, the “Inhibition ratio (%) of formazan formation” value is recorded as 9.2% in assay [2] (Concentration 0.5 mM) and 47.4% in assay [2] (Concentration 4 mM). Moreover, in assay [2], the “formazan formation (result in words)” value is reported as “remarkably inhibited formazan formation”.

As for `CC1(C)OCC(C2OC(=O)C(O)=C2OCc2ccccn2)O1` [compound 007, L-5,6-O-isopropylidene-3-O-2′-pyridylmethylascorbic acid], in assay [1], the IC50 was 23 µM.

For the molecule “L-5,6-O-isopropylidene-3-O-(3-butanone) ascorbic acid [compound 022]”, the IC50 in assay [1] turned out to be 20 µM. Also, the “Inhibition ratio (%) of formazan formation” value in assay [2] (Concentration 0.5 mM) is 22.6%; in assay [2] (Concentration 4 mM), 26.7%. For the same molecule, the “formazan formation (result in words)” value in assay [2] is listed as “remarkably inhibited formazan formation”.
